In patent US11234945B2, “Wound healing composition” (AGENCY FOR SCIENCE, TECHNOLOGY AND RESEARCH, priority 2016, dated 2022):
Entries after “also recorded” stand apart in the source; their conditions may differ.

Columns and labels:
[1] = system: intestinal epithelial cell; settings: rodents, cited from earlier work
AMD1 = AMD1 up-regulation post scratch (immunofluorescence, western blot); assay type: cell-based, human; settings: combined pre-treatment: 1 μM Tg 24 hours and 2 mM EGTA 1 hour; 6 hours post scratch
Description: (§1) It was then sought to determine if the up-regulation of AMD1 at the wound-edge was dependent on the wound-induced calcium wave. Human keratinocytes were labelled with the Ca^2+ probe Fluo-4 for 30 minutes prior to scratching to mimic a wound response. […] To assess the impact of a reduced calcium wave on up-regulation of AMD1, cells were pre-treated for 24 hours with 1 μM thapsigargin (Tg) and for 1 hour with 2 mM EGTA prior to scratch to deplete internal calcium stores and extracellular calcium, respectively.
(§2) Keratinocytes were seeded in glass-bottom 35-mm^2 dishes and cultured to full confluency in cell culture media. To deplete intracellular and extracellular Ca^2+ sources, cells were treated with 1 μM thapsigargin (Tg) (Sigma-Aldrich) for 24 hours and 2 mM ethylene glycol tetraacetic acid (EGTA, Sigma-Aldrich) for 1 hour prior to scratch. For Ca^2+ flux imaging, cells were incubated with Fluo-4,AM (Life Technologies; Thermo Fisher Scientific) and imaged with an automated confocal microscope (Spinning disk 3D-FRAP; Nikon Ti) at 0.2 second intervals for 5 minutes. Image analysis was performed using ImageJ software.

N/TERT-1 keratinocytes = experiment: In vitro scratch cell migration assay; assay type: cell-based, human; settings: for cell migration / closure of scratch wound: control keratinocytes, 5 μM added 48 h prior to scratch, Incucyte wound width
Description: (§3) Human immortalized keratinocytes (Dickson et al., 2000), N/TERT-1 were obtained and cultured in keratinocyte serum-free media (K-SFM; Life Technologies; Thermo Fisher Scientific) supplemented with 25 μg/ml bovine pituitary extract (BPE), 0.2 ng/ml epidermal growth factor (EGF), and 0.3 mM CaCl2, as previously described (Rheinwald et al., 2002). To culture cells to 100% confluence for scratch assays, N/TERT-1 cells were first cultured to 50% confluence in supplemented K-SFM growth medium and then switched to a media with a 1:1 ratio mixture of supplemented K-SFM and DF-K (a mixture of calcium free, glutamine free DMEM (Hyclone; GE Healthcare) with Ham's F-12/GlutaMAX (Gibco; Life Technologies; Thermo Fisher Scientific) at 1:1 (vol/vol) supplemented with 5 μg/ml BPE, 0.2 ng/ml EGF, and 1.5 mM L-glutamine (Life Technologies; Thermo Fisher Scientific)) until 100% confluent. Human HEK293T cells (Dharmacon; GE Healthcare) were used for lentiviral production as the packaging cell line and cultured in high glucose DMEM (Hyclone; GE Healthcare) with 10% fetal calf serum. All cells were grown in a humidified incubator with 5% CO2 at 37° C.
In Vitro Scratch Cell Migration Assay
Confluent keratinocytes on ImageLock 96-well microplates (Essen BioScience, Inc) were scratched using a 96-pin wound maker (Essen BioScience, Inc) to create homogeneous, 700-800-μm wide scratch wounds in cell monolayers. Scratched cells were imaged using a real-time cell imaging system, IncuCyte, (Essen BioScience, Inc) to monitor cell migration. Putrescine, spermidine, or spermine (5 μM, Sigma-Aldrich) were added to cells and incubated for 48 h prior to scratch. For analysis of protein and RNA expression in migrating cells, keratinocytes were cultured to full confluency in a 6-well culture dish (Corning Costar) and scratched with the large end of a 1-mL pipette tip. At specific time points, the cells were either harvested in lysis buffer (150 mM sodium chloride, 1% (v/v) Triton X-100, 0.5% sodium deoxycholate, 1% (v/v) sodium dodecyl sulfate, 50 mM Tris-HCl, 1% (v/v) Nonidet P-40 (NP-40), 0.1 mM phenylmethylsulfonyl fluoride (PMSF), 5 mM EDTA, and 1% (v/v) protease and phosphatase inhibitor cocktail) for western blot or Trizol reagent (Life Technologies; Thermo Fisher Scientific) for RNA analysis.

[2] = system: scratch-induced calcium wave in keratinocytes; experiment: Calcium wave imaging after scratch (Fluo-4); assay type: cell-based, human; settings: combined pre-treatment: 1 μM Tg 24 hours and 2 mM EGTA 1 hour prior to scratch
Description: as §1, §2

human ex vivo wounds = experiment: Human ex vivo excisional skin wounds, epithelial tongue length; assay type: cell-based; settings: 500 μM topically every 24 hours for 3 days; examined after 72 hours; PBS control
Description: Human skin samples were sourced from Dr T. C. Lim at the Yong Loo Lin School of Medicine, National University of Singapore. Written consent from participants was obtained in all cases. The study was done in accordance with the declaration of Helsinki and was approved by a local scientific ethics review board. The skin was further dissected into 6-mm cubes or circles. Excisional skin wounds of approximately 3 to 4 mm were made with surgical scissors. The ex vivo wounded skin explants were cultured at the air-liquid interface and treated topically with 500 μM of putrescine, spermidine, spermine or 1× phosphate-buffered saline (PBS) every 24 hours for 3 days. Non-wounded skin, day 0- and day 3-wounded biopsies were bisected, with half snap-frozen in Optimal Cutting Temperature Compound (OCT) and the other half fixed in 10% buffered formalin saline and embedded in paraffin for histological analysis.
Histological sections were prepared from wound tissue embedded in paraffin or snap-frozen in OCT. […] Images were acquired using a fluorescence microscope (Zeiss AxioImager Z1; Carl Zeiss). […]

sh-AMD1 keratinocytes = settings: supplementation in cell culture media, listed as Spermine
Description: as §3
Confluent keratinocytes on ImageLock 96-well microplates (Essen BioScience, Inc) were scratched using a 96-pin wound maker (Essen BioScience, Inc) to create homogeneous, 700-800-μm wide scratch wounds in cell monolayers. […]

## NCCCC(N)(C(=O)O)C(F)F (racemic) [DFMO, (RS)-2,5-diamino-2-(difluoromethyl)pentanoic acid]
[1]; ODC1 inhibition
  intestinal epithelial cell migration and proliferation: prevents intestinal epithelial cell migration and proliferation

## O=C(O)CN(CCN(CC(=O)O)CC(=O)O)CC(=O)O [EDTA]
AMD1
  AMD1 up-regulation in scratched cells: completely abrogates AMD1 protein up-regulation

## CCC(/C=N/N=C(N)N)=N\N=C(N)N [EGBG, reference compound]
N/TERT-1 keratinocytes; data not shown, concentration not given
  cell migration after AMD1 inhibitor: resulted in a similar delay in cell migration

## O=C(O)CN(CCOCCOCCN(CC(=O)O)CC(=O)O)CC(=O)O [EGTA, ethylene glycol tetraacetic acid]
AMD1
  AMD1 up-regulation in scratched cells: completely abrogated
[2]
  propagation of calcium wave upon scratch: effectively prevented the calcium wave

## NCCCCN [putrescine, butane-1,4-diamine, reference compound]
[1]; supplementation after DFMO
  rescue of DFMO effect on intestinal epithelial cell migration and proliferation: can be rescued through supplementation with putrescine
N/TERT-1 keratinocytes
  cell migration / closure of scratch wound: significantly impedes cell migration
N/TERT-1 keratinocytes; listed as Putrescine
  cell migration / closure of scratch wound: caused an inhibition of keratinocyte migration and a delay in closure of the scratch wound

## NCCCCNCCCN [spermidine, 1,4-butanediamine, N-(3-aminopropyl)]
Human ex vivo wounds
  epithelial tongue migration / wound repair: promoted a striking improvement in epithelial tongue migration; also recorded: promote wound repair of excisional human skin wounds

## NCCCNCCCCNCCCN [spermine, 1,4-butanediamine, N,N′-bis(3-aminopropyl)]
sh-AMD1 keratinocytes
  restoration of impaired cell migration in AMD1-knockdown keratinocytes: restores impaired cell migration in sh-AMD1 keratinocytes
N/TERT-1 keratinocytes
  cell migration / closure of scratch wound: promoted scratch wound closure in the control cells; also recorded: sufficient to drive increased cell migration
N/TERT-1 keratinocytes; listed as Spermine
  cell migration / closure of scratch wound: promotes the closure of scratch wounds in keratinocytes
N/TERT-1 keratinocytes; keratinocytes treated with EGBG, data not shown
  rescue of EGBG-induced delay in cell migration: similarly rescued by the addition of spermine
Human ex vivo wounds
  epithelial tongue migration / wound repair: promoted a striking improvement in epithelial tongue migration; also recorded: promote wound repair of excisional human skin wounds

## C/C=C(/C)C(=O)O[C@H]1C(C)=C2[C@H]([C@@H]1OC(=O)CCCCCCC)[C@@](C)(OC(C)=O)C[C@H](OC(=O)CCC)[C@@]1(O)[C@H]2OC(=O)[C@@]1(C)O [thapsigargin]
AMD1
  AMD1 up-regulation in scratched cells: completely abrogated; also recorded: completely abrogates AMD1 protein up-regulation
[2]
  propagation of calcium wave upon scratch: effectively prevented the calcium wave
